# Patent US20240327421A1 (Marquette University, priority 2017, published 2024)
# Entries after “also recorded” stand apart in the source; their conditions may differ.
# Assays:
# MCF-7 cells = experiment: MTT assay for proliferation of MCF-7 cells; type: cell-based; conditions: 24 h treatment, 0.001-10 μM
# Method: FIGS. 15A-15C. MTT assay for proliferation of MCF-7 cells. Cells were seeded into 96-well plates and incubated for 24 hr before treatment was applied. […] Absorbance values were converted to cell counts using a standard growth curve.
# MTT Assays. Human breast cancer cells (MCF-7) were provided by Dr. Manish Patankar (Department of Obstetrics and Gynecology, University of Wisconsin-Madison). Cells were cultured in Eagle's Minimum Essential Media (EMEM) supplemented with 10% fetal bovine serum and 0.01 mg/mL human recombinant insulin in 5% CO2 at 37° C. A seeding density of 7,000 cells per well was chosen and applied to a 96 well plate. […] Treated cells were incubated for 24 hours after which an MTT (3-(4,5-Dimethylthiazol-2-yl)-2,5-Diphenyltetrazolium Bromide) assay was performed by adding 20% MTT in EMEM solution to cach well and incubating for 4 hours. Formazan crystal metabolites were dissolved using 100% DMSO and absorbance was read at OD 570 nm as well as a reference of 650 nm using a VMax kinetic microplate reader (Molecular Devices, CA) running Softmax Pro version 6.1. Absorbances were converted to cell number using a standard growth curve.
# [1] = biological target: T1, Thyroid Hormone Receptor (TRβ) (Homo sapiens, UniProt P10828); experiment: GeneBLAzer nuclear hormone receptor specificity assay, TRβ; type: cell-based; conditions: 0.25 to 25 μM; listed as ISP358-2
# T1 sequence (P10828 217-461 limits assumed): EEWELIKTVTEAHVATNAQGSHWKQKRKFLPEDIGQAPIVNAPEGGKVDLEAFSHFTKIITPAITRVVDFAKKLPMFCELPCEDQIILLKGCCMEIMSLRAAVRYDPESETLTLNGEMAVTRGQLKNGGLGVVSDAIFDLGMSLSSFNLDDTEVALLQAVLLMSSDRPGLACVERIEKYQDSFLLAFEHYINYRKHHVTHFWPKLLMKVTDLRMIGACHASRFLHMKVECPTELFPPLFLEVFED
# ovariectomized mice [2] = experiment: Bloodwork chemistry and hematology panel; type: in vivo; conditions: single IP injection, 0.5 or 5 mg/kg
# Method: FIG. 14. Bloodwork panel for tissue pathology analysis for ISP358-2. Bloodwork hematology analysis was performed by Animal Reference Pathology, LLC in Salt Lake City, Utah (animalreferencepathology.com). Reference ranges are from Charles River Laboratories for CrL: Wi (Han) female 8-16 weck old rats. Blood samples were taken via cardiac puncture at the same time point and treatment conditions as in FIGS. 13A-13M. […] In some cases hemolysis occurred, likely due to the blood collection procedure, which precluded analysis for those samples, thus, samples sizes in the analysis were 6-8. The mean and standard error of the mean of cach group is listed in the table, along with outcomes from one-way ANOVA statistical analysis. […] The hematology samples were analyzed by a Sysmex XT-2000iV using veterinary software and the rat species setting.^3 The reagents for individual assays were sourced from either Seimens, RandOx or Sekisui.
# [3] = Nephelometry (aggregation / solubility)
# CYP1A2 = biological target: T2, CYP1A2 (Homo sapiens, UniProt P05177); experiment: P450-Glo CYP450 inhibition, CYP1A2; type: in vitro ADME; conditions: highest concentration 62.6 μM; listed as ISP358-2
# T2 construct: purchased Promega Corporation (Madison, WI)
# T2 sequence (P05177 1-516): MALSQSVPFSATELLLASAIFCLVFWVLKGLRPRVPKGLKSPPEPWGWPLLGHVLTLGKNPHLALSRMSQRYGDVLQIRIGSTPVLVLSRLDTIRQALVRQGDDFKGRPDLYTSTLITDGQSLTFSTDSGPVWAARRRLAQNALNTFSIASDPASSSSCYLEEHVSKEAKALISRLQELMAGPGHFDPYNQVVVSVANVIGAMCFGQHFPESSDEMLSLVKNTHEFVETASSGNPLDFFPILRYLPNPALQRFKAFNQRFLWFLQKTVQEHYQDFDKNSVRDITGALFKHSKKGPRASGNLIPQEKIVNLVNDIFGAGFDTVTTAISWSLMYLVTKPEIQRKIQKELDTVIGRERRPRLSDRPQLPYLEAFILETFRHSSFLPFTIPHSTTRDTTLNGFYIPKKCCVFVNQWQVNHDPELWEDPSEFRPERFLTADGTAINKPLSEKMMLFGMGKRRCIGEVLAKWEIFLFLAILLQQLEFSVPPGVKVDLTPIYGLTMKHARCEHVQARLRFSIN
# Method: In Vitro Druggability Assays-CYP450 Binding, hERG & Nephelometry. The P450-Glo™ Screening System from Promega Corporation (Madison, WI) was used to measure CYP450 (cytochrome P450) inhibition, as described in the kit instructions. Assays were run in 96-well white plates (Corning® 3912), and luminescence was measured on a SpectraMax M5 instrument (FIG. 6). The luminescence signal is proportional to the amount of luciferin product formed by the CYP reaction. Compounds were prepared in DMSO, then an eight-step 1:2 dilution series was made in DMSO. […] After adding the relevant Cytochrome P450 enzyme, the plate was incubated at 37° C. for 10 minutes to allow components to come to temperature. Next, the NADPH regeneration system was added to activate the reaction on a luminogenic P450-GloTM substrate, and incubated at 37° C. for 10-30 min, according to kit instructions for each CYP enzyme. The enzyme reaction was stopped by the addition of Luciferin Detection Reagent and luminescence of the plate was read in a Spectramax M5 (Molecular Devices) after a 20 min incubation at room temperature. Data were normalized to positive controls (α-naphthoflavone for CYP1A2, sulfaphenazole for CYP2C9, quinidine for CYP2D6, and ketoconazole for CYP3A4). Data analysis was with Prism software, as described above.
# ovariectomized mice [4] = experiment: Object recognition memory consolidation test
compound,measurement,setting,value
OC[C@H]1CC[C@H](c2ccc(O)cc2)CC1 [Compound 16],proliferation of MCF-7 cells vs untreated control,MCF-7 cells,No significant changes in the growth of MCF-7 cells
same,proliferation of MCF-7 cells vs untreated control,MCF-7 cells; listed as ISP358-2,neither ISP358-2 nor DPN showed any significant proliferation
same,"agonist activity, TRβ",[1],not an agonist; also recorded: no significant off-target activity
same,bloodwork chemistry and hematology vs reference ranges,ovariectomized mice [2],do not show significant deviations from expected reference ranges
same,solubility / aggregation by nephelometry,[3],reasonably soluble
same,CYP1A2 inhibition,CYP1A2,no significant inhibition
same,object recognition: time with novel object / memory consolidation,"ovariectomized mice [4]; IP injection, 0.5 mg/kg, listed as ISP358-2, 0.5 mg/kg",exhibited a significant preference for the novel object relative to chance; also recorded: most effectively enhanced consolidation; also recorded: enhanced memory consolidation
same,object recognition: time with novel object / memory consolidation,"ovariectomized mice [4]; IP injection, 5 mg/kg",somewhat of a trend for the 5 mg/kg ISP358-2 to prefer the novel object
same,object recognition: time with novel object / memory consolidation,"ovariectomized mice [4]; dorsal hippocampal infusion, 10 pg/hemisphere, tested 48 h after training, chance 15 s",Neither the vehicle nor 10 pg ISP358-2 groups showed a preference for the novel object
same,object recognition: time with novel object / memory consolidation,"ovariectomized mice [4]; dorsal hippocampal infusion, 100 pg/hemisphere, tested 48 h after training, listed as ISP358-2",spent significantly more time than chance with the novel object; also recorded: enhanced memory consolidation; also recorded: significantly increased time was spent
same,object recognition: time with novel object / memory consolidation,"ovariectomized mice [4]; dorsal hippocampal infusion, 1 ng/hemisphere, tested 48 h after training, listed as ISP358-2",spent significantly more time than chance with the novel object; also recorded: enhanced memory consolidation; also recorded: significantly increased time was spent
same,object recognition: time with novel object / memory consolidation,"ovariectomized mice [4]; oral gavage, 0.5 mg/kg, listed as ISP358-2, 0.5 mg/kg",spent significantly more time with the novel object relative to chance; also recorded: enhanced memory consolidation
same,object recognition: time with novel object / memory consolidation,"ovariectomized mice [4]; oral gavage, 5 mg/kg, listed as ISP358-2, 5 mg/kg",spent significantly more time with the novel object relative to chance; also recorded: most effective; also recorded: enhanced memory consolidation
